“Also recorded” adds a separate entry of the source.
Legend:
H1 = H1 (Homo sapiens, UniProt P35367); experiment: biochemical; assay type: binding; conditions: for Ki: Ki H1, radioligand binding
5HT2C = target: T1, 5HT2C (Homo sapiens, UniProt P28335); experiment: 5HT2C radioligand binding assay; conditions: for Ki: Ki 5HT2C, radioligand binding
T1 sequence (P28335 33-458): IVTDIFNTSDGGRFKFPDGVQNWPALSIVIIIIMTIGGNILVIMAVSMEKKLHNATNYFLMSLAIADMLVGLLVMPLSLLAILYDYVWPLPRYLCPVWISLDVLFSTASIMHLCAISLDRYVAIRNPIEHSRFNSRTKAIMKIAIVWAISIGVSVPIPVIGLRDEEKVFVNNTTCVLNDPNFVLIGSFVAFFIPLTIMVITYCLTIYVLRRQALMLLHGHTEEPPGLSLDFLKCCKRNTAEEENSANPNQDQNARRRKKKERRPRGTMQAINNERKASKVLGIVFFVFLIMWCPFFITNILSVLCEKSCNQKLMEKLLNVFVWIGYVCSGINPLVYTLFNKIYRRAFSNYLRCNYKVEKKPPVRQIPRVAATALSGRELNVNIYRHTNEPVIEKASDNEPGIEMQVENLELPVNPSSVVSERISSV

[1] = target: hM3 (native human M3 receptor) (Homo sapiens, UniProt P20309); experiment: cell-based; assay type: cell-based; conditions: for Emax: read-out: hM3 Emax (relative to acetylcholine)
α1A = target: T2, α1A (Homo sapiens, UniProt P35348); experiment: α1A radioligand binding assay; conditions: for Ki: Ki α1A, radioligand binding
T2 sequence (P35348 1-466): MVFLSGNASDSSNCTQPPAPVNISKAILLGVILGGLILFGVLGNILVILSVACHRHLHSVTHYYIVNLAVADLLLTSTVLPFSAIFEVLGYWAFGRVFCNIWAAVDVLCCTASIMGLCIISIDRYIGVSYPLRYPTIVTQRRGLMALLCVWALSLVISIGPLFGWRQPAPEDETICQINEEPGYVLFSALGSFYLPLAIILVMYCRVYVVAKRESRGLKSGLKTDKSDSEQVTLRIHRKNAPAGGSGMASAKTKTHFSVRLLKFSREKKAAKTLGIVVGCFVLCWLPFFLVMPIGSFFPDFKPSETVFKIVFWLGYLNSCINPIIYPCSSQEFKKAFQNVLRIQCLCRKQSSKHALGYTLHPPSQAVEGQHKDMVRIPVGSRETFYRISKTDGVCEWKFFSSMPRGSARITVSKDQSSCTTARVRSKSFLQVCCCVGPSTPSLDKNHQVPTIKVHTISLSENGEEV

5HT2A = 5HT2A (Homo sapiens, UniProt P28223); experiment: biochemical; assay type: binding; conditions: for Ki: Ki 5HT2A, radioligand binding
hM3Dq = hM3Dq (Homo sapiens, UniProt P20309, A239G/Y149C); experiment: cell-based; assay type: cell-based; conditions: for Emax: read-out: hM3Dq Emax (relative to CNO); for hM3Dq potency decrease on replacing methyl with n-propyl: 4d vs 4a, 5d vs 5a
hM3Dq, sequence (P20309 whole entry Y149C/A239G): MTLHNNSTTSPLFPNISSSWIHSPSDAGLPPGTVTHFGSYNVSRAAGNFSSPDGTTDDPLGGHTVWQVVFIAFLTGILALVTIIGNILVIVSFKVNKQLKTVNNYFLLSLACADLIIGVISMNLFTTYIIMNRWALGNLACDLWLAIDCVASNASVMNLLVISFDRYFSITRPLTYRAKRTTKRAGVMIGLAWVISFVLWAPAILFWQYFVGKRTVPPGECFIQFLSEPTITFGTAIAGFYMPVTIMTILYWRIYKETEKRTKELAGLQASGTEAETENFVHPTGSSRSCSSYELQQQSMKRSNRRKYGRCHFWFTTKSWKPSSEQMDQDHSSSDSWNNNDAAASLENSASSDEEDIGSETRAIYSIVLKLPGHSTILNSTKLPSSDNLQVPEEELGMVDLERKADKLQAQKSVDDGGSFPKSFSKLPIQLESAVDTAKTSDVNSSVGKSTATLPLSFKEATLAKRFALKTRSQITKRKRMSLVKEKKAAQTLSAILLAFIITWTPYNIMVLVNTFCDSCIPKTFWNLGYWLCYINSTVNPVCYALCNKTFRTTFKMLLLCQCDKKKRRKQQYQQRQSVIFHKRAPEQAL

hM3 (native human M3 receptor), sequence (P20309 whole entry): as the sequence (P20309 whole entry Y149C/A239G) above, with C149Y, G239A counted along it
5HT2A, sequence (P28223 whole entry, species assumed): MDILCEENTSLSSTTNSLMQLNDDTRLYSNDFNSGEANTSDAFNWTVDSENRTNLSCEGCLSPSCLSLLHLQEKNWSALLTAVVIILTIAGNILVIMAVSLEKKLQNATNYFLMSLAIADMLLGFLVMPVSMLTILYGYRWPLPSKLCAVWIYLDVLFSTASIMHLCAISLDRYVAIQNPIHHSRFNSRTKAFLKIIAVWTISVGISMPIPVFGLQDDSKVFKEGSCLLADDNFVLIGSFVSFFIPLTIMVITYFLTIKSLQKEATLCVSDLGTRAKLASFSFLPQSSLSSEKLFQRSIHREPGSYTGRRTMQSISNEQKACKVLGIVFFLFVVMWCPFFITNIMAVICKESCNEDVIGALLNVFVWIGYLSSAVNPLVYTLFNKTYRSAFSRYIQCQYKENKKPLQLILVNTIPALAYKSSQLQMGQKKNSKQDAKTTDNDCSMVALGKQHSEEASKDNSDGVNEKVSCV
H1, sequence (P35367 whole entry): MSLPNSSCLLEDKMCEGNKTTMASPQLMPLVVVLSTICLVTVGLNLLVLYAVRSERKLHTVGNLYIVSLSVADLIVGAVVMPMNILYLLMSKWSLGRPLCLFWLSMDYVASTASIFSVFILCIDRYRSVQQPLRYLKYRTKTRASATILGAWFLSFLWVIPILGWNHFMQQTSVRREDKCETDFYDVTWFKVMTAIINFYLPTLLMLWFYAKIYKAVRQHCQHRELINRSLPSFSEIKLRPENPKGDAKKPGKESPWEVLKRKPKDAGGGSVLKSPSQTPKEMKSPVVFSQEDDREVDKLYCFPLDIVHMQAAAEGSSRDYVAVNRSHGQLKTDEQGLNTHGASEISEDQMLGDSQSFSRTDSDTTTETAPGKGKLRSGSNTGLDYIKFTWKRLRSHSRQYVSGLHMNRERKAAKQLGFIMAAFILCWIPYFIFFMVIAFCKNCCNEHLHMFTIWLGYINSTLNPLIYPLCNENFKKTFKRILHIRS

| Compound | EC50 [1] [µM] | EC50 (hM3Dq) [nM] | Emax (hM3Dq) [%] | agonist activity for hM3 (in words) [1] | agonist activity for hM3Dq (in words) (hM3Dq) | also measured |
| --- | --- | --- | --- | --- | --- | --- |
| CC(C)[N+]1([O-])CCN(C2=Nc3cc(Cl)ccc3Nc3ccccc32)CC1 [Compound 5c, 4-(8-Chloro-5H-dibenzo[b,e][1,4]diazepin-11-yl)-1-isopropylpiperazine N-oxide] | > 30 | 190 | 45 |  |  | Ki (H1): 6200 nM; Ki (5HT2C): 6700 nM; selectivity for hM3Dq over α1A (α1A): about 2 fold; Ki (α1A): 320 nM; Ki (5HT2A): 5200 nM |
| CCN1CCN(C2=Nc3ccccc3Nc3ccccc32)CC1 [Compound 22, 11-(4-Ethylpiperazin-1-yl)-5H-dibenzo[b,e][1,4]diazepine] |  |  | 81 | did not exhibit any agonist activity |  |  |
| CCC[N+]1([O-])CCN(C2=Nc3cc(Cl)ccc3Nc3ccccc32)CC1 [Compound 5d, 4-(8-Chloro-5H-dibenzo[b,e][1,4]diazepin-11-yl)-1-propylpiperazine N-oxide] | > 30 | 740 | 79 |  |  | hM3Dq potency decrease on replacing methyl with n-propyl (hM3Dq): ~100 fold |
| CS(=O)(=O)N1CCN(C2=Nc3cc(Cl)ccc3Nc3ccccc32)CC1 [Compound 14, 8-Chloro-11-(4-(methylsulfonyl)piperazin-1-yl)-5H-dibenzo[b,e][1,4]diazepine] | > 30 | > 30000 |  | did not activate | did not display any agonist activity |  |
| O=C1NC(=O)C2(CCN(C3=Nc4cc(Cl)ccc4Nc4ccccc43)CC2)N1 [Compound 9, 8-(8-Chloro-5H-dibenzo[b,e][1,4]diazepin-11-yl)-1,3,8-triazaspiro[4.5]decane-2,4-dione] | > 30 | > 30000 |  | did not activate | did not activate |  |
| O=C1CN(C2=Nc3cc(Cl)ccc3Nc3ccccc32)CCN1 [Compound 7, 4-(8-Chloro-5H-dibenzo[b,e][1,4]diazepin-11-yl)piperazin-2-one] | > 30 | > 30000 |  | did not activate | did not display any agonist activity |  |
| C[N+]1(C)CCN(C2=Nc3cc(Cl)ccc3Nc3ccccc32)CC1.[I-] [Compound 6, 4-(8-Chloro-5H-dibenzo[b,e][1,4]diazepin-11-yl)-1,1-dimethylpiperazin-1-ium iodide] | 0.0095 | 0.069 | 100 |  |  | selectivity for hM3Dq over hM3 [1]: > 100 fold; Emax [1]: 92%; fold more potent than compound 4a (clozapine) at hM3Dq (hM3Dq): about 15 fold |
| CC(=O)OCC[N+](C)(C)C [ACh, acetylcholine, reference compound] |  |  |  | potent hM3 agonist | does not activate |  |
| NC1(C(=O)O)CCN(C2=Nc3cc(Cl)ccc3Nc3ccccc32)CC1 [Compound 10, 4-Amino-1-(8-chloro-5H-dibenzo[b,e][1,4]diazepin-11-yl)piperidine-4-carboxylic acid] | > 30 | > 30000 |  | did not activate | did not activate |  |
| CN1CCN(C2=Nc3ccccc3Cc3ccccc32)CC1 [perlapine, reference compound] |  |  |  |  |  | selectivity for hM3Dq over hM3 [1]: > 10 000 fold |
| CCCN1CCN(C2=Nc3cc(Cl)ccc3Nc3ccccc32)CC1 [Compound 4d, 8-Chloro-11-(4-propylpiperazin-1-yl)-5H-dibenzo[b,e][1,4]diazepine] | > 30 | 71 | 50 |  |  | hM3Dq potency decrease on replacing methyl with n-propyl (hM3Dq): approximately 70 fold |
| c1ccc2c(c1)N=C(N1CCNCC1)c1ccccc1N2 [Compound 21, 11-(Piperazin-1-yl)-5H-dibenzo[b,e][1,4]diazepine] |  | 1.7 | 100 | do not activate; also recorded: inactive |  | selectivity for hM3Dq over H1 (H1): 3.5 fold; Ki (H1): 6 nM; selectivity for hM3Dq over 5HT2C (5HT2C): 100 fold; Ki (5HT2C): 170 nM; Emax [1]: ~20%; selectivity for hM3Dq over α1A (α1A): 165 fold; Ki (α1A): 280 nM; selectivity for hM3Dq over 5HT2A (5HT2A): 40 fold; Ki (5HT2A): 66 nM |
| CC[N+]1([O-])CCN(C2=Nc3cc(Cl)ccc3Nc3ccccc32)CC1 [Compound 5b, 4-(8-Chloro-5H-dibenzo[b,e][1,4]diazepin-11-yl)-1-ethylpiperazine N-oxide] | > 30 | 19 | 50 |  |  | selectivity for hM3Dq over H1 (H1): about 8 fold; Ki (H1): 160 nM; Ki (5HT2C): 5100 nM; Ki (α1A): > 1000 nM; Ki (5HT2A): 1900 nM |
| CC[N+]1([O-])CCN(C2=Nc3ccccc3Nc3ccccc32)CC1 [Compound 23, 4-(5H-Dibenzo[b,e][1,4]diazepin-11-yl)-1-ethylpiperazine N-oxide] | > 30 | 220 | 59 | did not exhibit any agonist activity |  | fold less potent for hM3Dq than compound 5b (hM3Dq): about 10 fold |
| CC(C)N1CCN(C2=Nc3cc(Cl)ccc3Nc3ccccc32)CC1 [Compound 4c, 8-Chloro-11-(4-isopropylpiperazin-1-yl)-5H-dibenzo[b,e][1,4]diazepine] | > 30 | 13 | 45 |  |  | Ki (H1): 4.6 nM; Ki (5HT2C): 17 nM; Ki (α1A): 37 nM |
| CC(=O)N1CCN(C2=Nc3cc(Cl)ccc3Nc3ccccc32)CC1 [Compound 12, 1-(4-(8-Chloro-5H-dibenzo[b,e][1,4]diazepin-11-yl)piperazin-1-yl)ethanone] | > 30 | > 30000 |  | did not activate | did not display any agonist activity |  |
